Measured values reported in publication PMC10767055, “Different binding modalities of quercetin to inositol-requiring enzyme 1 of S. cerevisiae and human lead to opposite regulation” (Communications Chemistry, 2024).

Key:
[1] = biological target: T1, human IRE1 (hIRE1, IRE1α) (Homo sapiens, UniProt O75460); assay: MST displacement of fluorescent Kinase Tracer […] (positive control); assay type: binding
T1 construct: gene ERN1; aa 465-977, His & GST Tag

[2] = biological target: T1, human IRE1 (hIRE1, IRE1α); assay: in vitro RNase cleavage assay, recombinant IRE1, fluorescence-quenched mini XBP1 RNA probe; assay type: biochemical

T1 sequence (O75460 465-977): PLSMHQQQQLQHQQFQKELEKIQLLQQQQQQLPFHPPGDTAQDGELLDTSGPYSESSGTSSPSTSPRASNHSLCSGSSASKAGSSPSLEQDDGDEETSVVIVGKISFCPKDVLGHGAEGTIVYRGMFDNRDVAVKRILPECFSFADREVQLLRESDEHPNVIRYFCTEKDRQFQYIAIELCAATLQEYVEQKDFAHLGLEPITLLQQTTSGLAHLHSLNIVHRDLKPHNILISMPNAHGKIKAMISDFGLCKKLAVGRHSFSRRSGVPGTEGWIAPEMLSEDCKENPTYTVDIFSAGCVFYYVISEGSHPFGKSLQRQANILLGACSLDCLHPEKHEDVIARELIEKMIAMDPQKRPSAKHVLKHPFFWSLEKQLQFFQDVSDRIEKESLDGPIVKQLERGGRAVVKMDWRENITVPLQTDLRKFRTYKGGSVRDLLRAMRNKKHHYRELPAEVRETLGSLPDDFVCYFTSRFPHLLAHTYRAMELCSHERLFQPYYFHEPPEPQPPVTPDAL

SMILES	IC50 [1]	IC50 [2]
Cc1ccc2c(NS(=O)(=O)c3ccccc3Cl)cccc2c1Oc1ncccc1-c1ccnc(N[C@H]2CCCNC2)n1 [KIRA8]	73 ± 5 nM	
O=c1c(O)c(-c2ccc(O)c(O)c2)oc2cc(O)cc(O)c12 [Qe, Quercetin]		272 ± 150 nM
C[C@@H]1O[C@@H](Oc2c(-c3ccc(O)c(O)c3)oc3cc(O)cc(O)c3c2=O)[C@H](O)[C@H](O)[C@H]1O [Qi, Quercitrin]		226 ± 70 nM
